This note sets out measurements from US9505786B2, “Substituted annulated triazines and use thereof” (BAYER INTELLECTUAL PROPERTY GMBH, priority 2012, dated 2016).

pIC50: −log10 of the molar value.

In assay [1] the test system is recombinant guanylate cyclase reporter cell line. The assay can be described thus: Effect on a recombinant guanylate cyclase reporter cell line. It counts as cell-based. How it is done:
B-2. Effect on a Recombinant Guanylate Cyclase Reporter Cell Line
The cellular activity of the compounds according to the invention is determined using a recombinant guanylate cyclase reporter cell line, as described in F. Wunder et al., Anal. Biochem. 339, 104-112 (2005).

Another assay concerns aorta rings. The assay can be described thus: Vasorelaxant effect in vitro (phenylephrine-contracted aorta rings). To be noted: Oryctolagus cuniculus, rabbit aorta rings, organ bath, phenylephrine contraction; read-out: IC50 (concentration needed to reduce the phenylephrine contraction by 50%). How it is done:
B-1. Vasorelaxant Effect In Vitro
Rabbits are stunned by a blow to the neck and exsanguinated. The aorta is removed, freed from adhering tissue and divided into rings of a width of 1.5 mm. The rings are placed individually under an initial tension in 5 ml organ baths with Krebs-Henseleit solution which is at 37° C., is gassed with carbogen and has the following composition (in each case mM): sodium chloride: 119; potassium chloride: 4.8; calcium chloride dihydrate: 1; magnesium sulphate heptahydrate: 1.4; potassium dihydrogenphosphate: 1.2; sodium bicarbonate: 25; glucose: 10. The contractile force is determined with Statham UC2 cells, amplified and digitalized using A/D transducers (DAS-1802 HC, Keithley Instruments Munich), and recorded in parallel on linear recorders.
To produce a contraction, phenylephrine is added to the bath cumulatively in increasing concentration. After several control cycles, the substance to be investigated is added in each further run in increasing dosage in each case, and the height of the contraction achieved is compared with the height of the contraction reached in the last preceding run. This is used to calculate the concentration needed to reduce the magnitude of the control value by 50% (IC50 value). The standard administration volume is 5 μl; the DMSO content in the bath solution corresponds to 0.1%.

For assay [2], the target named is human phosphodiesterase 5 (PDE 5) (Homo sapiens (Human), UniProt O76074). As to the kind of experiment: Inhibition of human phosphodiesterase 5 (PDE 5), SPA assay. Type of assay: biochemical. The conditions noted are these: PDE 5 preparation from human platelets, [8-3H] cGMP substrate. The method, then: B-6. Inhibition of Human Phosphodiesterase 5 (PDE 5)
PDE 5 preparations are obtained from human platelets by disruption (Microfluidizer®, 800 bar, 3 passes), followed by centrifugation (75 000 g, 60 min, 4° C.) and ion exchange chromatography of the supernatant on a Mono Q 10/10 column (linear sodium chloride gradient, elution with a 0.2-0.3M solution of sodium chloride in buffer (20 mM Hepes pH 7.2, 2 mM magnesium chloride). Fractions having PDE 5 activity are combined (PDE 5 preparation) and stored at −80° C.
To determine their in vitro action on human PDE 5, the test substances are dissolved in 100% DMSO and serially diluted. Typically, dilution series (1:3) from 200 μM to 0.091 μM are prepared (resulting final concentrations in the test: 4 μM to 0.0018 μM). In each case 2 μl of the diluted substance solutions are placed into the wells of microtitre plates (Isoplate-96/200W; Perkin Elmer). Subsequently, 50 μl of a dilution of the above-described PDE 5 preparation are added. The dilution of the PDE 5 preparation is chosen such that during the later incubation less than 70% of the substrate are converted (typical dilution: 1:100; dilution buffer: 50 mM Tris/hydrochloric acid pH 7.5, 8.3 mM magnesium chloride, 1.7 mM EDTA, 0.2% BSA). The substrate, [8-^3H] cyclic guanosine-3′,5′-monophosphate (1 μCi/μl; Perkin Elmer) is diluted 1:2000 with assay buffer (50 mM tris/hydrochloric acid pH 7.5, 8.3 mM magnesium chloride, 1.7 mM EDTA) to a concentration of 0.0005 μCi/μl. By addition of 50 μl (0.025 μCi) of the diluted substrate, the enzyme reaction is finally started. The test mixtures are incubated at room temperature for 60 min and the reaction is stopped by adding 25 μl of a suspension of 18 mg/ml yttrium scintillation proximity beads in water (phosphodiesterase beads for SPA assays, RPNQ 0150, Perkin Elmer). The microtitre plates are sealed with a film and left to stand at room temperature for 60 min. Subsequently, the plates are analysed for 30 s per well in a Microbeta scintillation counter (Perkin Elmer). IC50 values are determined using the graphic plot of the substance concentration against percentage PDE 5 inhibition.

As for `CCOC(=O)C1(C)C(=O)Nc2nc(-c3nn(Cc4ccccc4F)c4ncccc34)nc(I)c21` (racemic) [Example 43, (rac) Ethyl 2-[1-(2-fluorobenzyl)-1H-pyrazolo[3,4-b]pyridin-3-yl]-4-iodo-5-methyl-6-oxo-6,7-dihydro-5H-pyrrolo[2,3-d]pyrimidine-5-carboxylate], the “MEC (minimum effective concentration)” value in assay [1] worked out at 100 nM. The pIC50 with aorta rings is 6.01; in assay [2], 5.76.
The like results for `C=CCC1(C)C(=O)Nc2nc(-c3nn(Cc4ccccc4F)c4ncc(F)cc34)nnc21` (racemic) [Example 51, (rac) 7-Allyl-3-[5-fluoro-1-(2-fluorobenzyl)-1H-pyrazolo[3,4-b]pyridin-3-yl]-7-methyl-5,7-dihydro-6H-pyrrolo[2,3-e][1,2,4]triazin-6-one] were, in that order, 30 nM, 6.38 and 6.85.
The like results for `CC1(c2nncs2)C(=O)Nc2nc(-c3nn(Cc4ccccc4F)c4ncccc34)ncc21` (racemic) [Example 34, (rac) 2-[1-(2-Fluorobenzyl)-1H-pyrazolo[3,4-b]pyridin-3-yl]-5-methyl-5-(1,3,4-thiadiazol-2-yl)-5,7-dihydro-6H-pyrrolo[2,3-d]pyrimidin-6-one] were, in that order, 30 nM, 6.66 and 5.92.
For `Cn1nc(C(F)(F)F)cc1-c1nc(-c2nn(Cc3ccccc3F)c3ncccc23)nc2c1C(C)(C)C(=O)N2` [Example 41, 2-[1-(2-Fluorobenzyl)-1H-pyrazolo[3,4-b]pyridin-3-yl]-5,5-dimethyl-4-[1-methyl-3-(trifluoromethyl)-1H-pyrazol-5-yl]-5,7-dihydro-6H-pyrrolo[2,3-d]pyrimidin-6-one], in that order: 300 nM, 5.38 and 5.80.
With `NC1(C(F)(F)C(F)(F)F)C(=O)Nc2nc(-c3nn(Cc4ccccc4F)c4ncccc34)ncc21` (stereo not drawn) [Example 4, 5-Amino-2-[1-(2-fluorobenzyl)-1H-pyrazolo[3,4-b]pyridin-3-yl]-5-(pentafluoroethyl)-5,7-dihydro-6H-pyrrolo[2,3-d]pyrimidin-6-one], the “MEC (minimum effective concentration)” value in assay [1] is 100 nM. For the same molecule, the values for the pIC50 (in the assay with aorta rings; in assay [2]) were 6.67 and 5.89, respectively.
For `COc1cccc(Cn2nc(-c3nnc4c(n3)NC(=O)C4(C)C)c3cc(F)cnc32)c1F` [Example 11, 3-[5-Fluoro-1-(2-fluoro-3-methoxybenzyl)-1H-pyrazolo[3,4-b]pyridin-3-yl]-7,7-dimethyl-5,7-dihydro-6H-pyrrolo[2,3-e][1,2,4]triazin-6-one], in that order: 300 nM, 6.63 and 6.60.
The like results for `CC1(C)C(=O)Nc2nc(-c3nn(Cc4ccccc4F)c4ncccc34)nc(CCC(F)(F)F)c21` [Example 31, 2-[1-(2-Fluorobenzyl)-1H-pyrazolo[3,4-b]pyridin-3-yl]-5,5-dimethyl-4-(3,3,3-trifluoropropyl)-5,7-dihydro-6H-pyrrolo[2,3-d]pyrimidin-6-one] were, in that order, 100 nM, 6.51 and 6.59.
For `CC1(C)C(=O)Nc2nc(-c3nn(Cc4ccccc4F)c4ncccc34)nc(-c3ccn[nH]3)c21` [Example 15, 2-[1-(2-Fluorobenzyl)-1H-pyrazolo[3,4-b]pyridin-3-yl]-5,5-dimethyl-4-(1H-pyrazol-5-yl)-5,7-dihydro-6H-pyrrolo[2,3-d]pyrimidin-6-one], in that order: 10 nM, 6.13 and 7.40.
As for `CC1(C)C(=O)Nc2nc(-c3nn(Cc4ccccc4F)c4ncccc34)nc(CCCC(F)(F)F)c21` [Example 30, 2-[1-(2-Fluorobenzyl)-1H-pyrazolo[3,4-b]pyridin-3-yl]-5,5-dimethyl-4-(4,4,4-trifluorobutyl)-5,7-dihydro-6H-pyrrolo[2,3-d]pyrimidin-6-one], the “MEC (minimum effective concentration)” value in assay [1] is 100 nM. For the same molecule, the pIC50 was 6.38 with aorta rings and 6.89 in assay [2].
For `COCCCc1nc(-c2nn(Cc3ccccc3F)c3ncccc23)nc2c1C(C)(C)C(=O)N2` [Example 46, 2-[1-(2-Fluorobenzyl)-1H-pyrazolo[3,4-b]pyridin-3-yl]-4-(3-methoxypropyl)-5,5-dimethyl-5,7-dihydro-6H-pyrrolo[2,3-d]pyrimidin-6-one], the “MEC (minimum effective concentration)” value in assay [1] is reported as 100 nM. In addition, the pIC50 in the assay with aorta rings was 7.15; in assay [2], 6.92.
For `Cn1c(C#N)ccc1-c1nc(-c2nn(Cc3ccccc3F)c3ncccc23)nc2c1C(C)(C)C(=O)N2` [Example 42, 5-{2-[1-(2-Fluorobenzyl)-1H-pyrazolo[3,4-b]pyridin-3-yl]-5,5-dimethyl-6-oxo-6,7-dihydro-5H-pyrrolo[2,3-d]pyrimidin-4-yl}-1-methyl-1H-pyrrole-2-carbonitrile], in that order: 10 nM, 6.14 and 5.89.
Consider `Cn1nccc1-c1nc(-c2nn(Cc3ccccc3F)c3ncccc23)nc2c1C(C)(C)C(=O)N2` [Example 40, 2-[1-(2-Fluorobenzyl)-1H-pyrazolo[3,4-b]pyridin-3-yl]-5,5-dimethyl-4-(1-methyl-1H-pyrazol-5-yl)-5,7-dihydro-6H-pyrrolo[2,3-d]pyrimidin-6-one], for which the “MEC (minimum effective concentration)” value in assay [1] is given as 30 nM. Further, the pIC50 in the assay with aorta rings is 6.64; in assay [2], 6.60.
For `CC1(C)C(=O)Nc2nc(-c3nn(Cc4ccccc4F)c4ncccc34)nc(CCC3CC3)c21` [Example 17, 4-(2-Cyclopropylethyl)-2-[1-(2-fluorobenzyl)-1H-pyrazolo[3,4-b]pyridin-3-yl]-5,5-dimethyl-5,7-dihydro-6H-pyrrolo[2,3-d]pyrimidin-6-one], in that order: 100 nM, 5.62 and 6.59.
For `Cc1nc(C(C)C)sc1-c1nc(-c2nn(Cc3ccccc3F)c3ncccc23)nc2c1C(C)(C)C(=O)N2` [Example 37, 2-[1-(2-Fluorobenzyl)-1H-pyrazolo[3,4-b]pyridin-3-yl]-4-(2-isopropyl-4-methyl-1,3-thiazol-5-yl)-5,5-dimethyl-5,7-dihydro-6H-pyrrolo[2,3-d]pyrimidin-6-one], in that order: 1000 nM, 5.84 and 6.30.
Regarding `CC(C)Cc1nc(-c2nn(Cc3ccccc3F)c3ncccc23)nc2c1C(C)(C)C(=O)N2` [Example 29, 2-[1-(2-Fluorobenzyl)-1H-pyrazolo[3,4-b]pyridin-3-yl]-4-isobutyl-5,5-dimethyl-5,7-dihydro-6H-pyrrolo[2,3-d]pyrimidin-6-one], the “MEC (minimum effective concentration)” value in assay [1] worked out at 100 nM. For the same molecule, the pIC50 with aorta rings was 6.11; in assay [2] it was 6.38.
For `Cc1nc(C)c(-c2nc(-c3nn(Cc4ccccc4F)c4ncccc34)nc3c2C(C)(C)C(=O)N3)s1` [Example 36, 4-(2,4-Dimethyl-1,3-thiazol-5-yl)-2-[1-(2-fluorobenzyl)-1H-pyrazolo[3,4-b]pyridin-3-yl]-5,5-dimethyl-5,7-dihydro-6H-pyrrolo[2,3-d]pyrimidin-6-one], in that order: 100 nM, 6.66 and 5.96.
